Results on two compounds are retold here after ChEMBL document CHEMBL1147100, “Metronidazole plus rifampin sterilizes long-term dormant Mycobacterium tuberculosis” (Antimicrob Agents Chemother, 2007).

Calls of active or inactive are those of the source. The calls are words filed in the database; no cut-off is given here.

Common to all, as to type: functional, organism-based
Test [1] deals with Mycobacterium tuberculosis. Put plainly: Bactericidal activity against 5-day old actively replicating Mycobacterium tuberculosis H37Rv in aerobic condition at 1 ug/ml after 1 day by Wayne dormancy culture model.
Test [2] deals with Mycobacterium tuberculosis. Put plainly: Bactericidal activity against 5-day old actively replicating Mycobacterium tuberculosis H37Rv in aerobic condition at 1 ug/ml after 4 days by Wayne dormancy culture model.
Test [3] deals with Mycobacterium tuberculosis. Nature of the test: Bactericidal activity against 5-day old actively replicating Mycobacterium tuberculosis H37Rv in aerobic condition at 1 ug/ml after 11 days by Wayne dormancy culture model.
For test [4], the system named is Mycobacterium tuberculosis. Nature of the test: Bactericidal activity against 19-day old non-replicating Mycobacterium tuberculosis H37Rv in anaerobic condition at 1 ug/ml after 1 day by Wayne dormancy culture model.
The subject of test [5] is Mycobacterium tuberculosis. Put plainly: Bactericidal activity against 19-day old non-replicating Mycobacterium tuberculosis H37Rv in anaerobic condition at 1 ug/ml after 4 days by Wayne dormancy culture model.
Test [6] concerns Mycobacterium tuberculosis. Put plainly: Bactericidal activity against 19-day old non-replicating Mycobacterium tuberculosis H37Rv in anaerobic condition at 1 ug/ml after 11 days by Wayne dormancy culture model.
The subject of test [7] is Mycobacterium tuberculosis. Put plainly: Bactericidal activity against 26-day old non-replicating Mycobacterium tuberculosis H37Rv at 1 ug/ml after 1 day by Wayne in anaerobic condition dormancy culture model.
The subject of test [8] is Mycobacterium tuberculosis. Nature of the test: Bactericidal activity against 26-day old non-replicating Mycobacterium tuberculosis H37Rv in anaerobic condition at 1 ug/ml after 4 days by Wayne dormancy culture model.
The test system of test [9] is Mycobacterium tuberculosis. Nature of the test: Bactericidal activity against 26-day old non-replicating Mycobacterium tuberculosis H37Rv in anaerobic condition at 1 ug/ml after 11 days by Wayne dormancy culture model.
In test [10] the test system is Mycobacterium tuberculosis. Nature of the test: Bactericidal activity against 12-day old non-replicating Mycobacterium tuberculosis H37Rv in anaerobic condition at 1 ug/ml after 1 day by Wayne dormancy culture model.
The subject of test [11] is Mycobacterium tuberculosis. Put plainly: Bactericidal activity against 12-day old non-replicating Mycobacterium tuberculosis H37Rv in anaerobic condition at 1 ug/ml after 4 days by Wayne dormancy culture model.
Test [12] deals with Mycobacterium tuberculosis. Nature of the test: Bactericidal activity against 12-day old non-replicating Mycobacterium tuberculosis H37Rv in anaerobic condition at 1 ug/ml after 11 days by Wayne dormancy culture model.
In test [13] the test system is Mycobacterium tuberculosis. Nature of the test: Bactericidal activity against 12-day old non-replicating Mycobacterium tuberculosis H37Rv in anaerobic condition at 8 ug/ml after 1 day by Wayne dormancy culture model.
Test [14] deals with Mycobacterium tuberculosis. Put plainly: Bactericidal activity against 12-day old non-replicating Mycobacterium tuberculosis H37Rv in anaerobic condition at 8 ug/ml after 4 days by Wayne dormancy culture model.
The subject of test [15] is Mycobacterium tuberculosis. Nature of the test: Bactericidal activity against 5-day old actively replicating Mycobacterium tuberculosis H37Rv in aerobic condition at 8 ug/ml by Wayne dormancy culture model.
Test [16] has as its system Mycobacterium tuberculosis. Put plainly: Bactericidal activity against 26-day old non-replicating Mycobacterium tuberculosis H37Rv in anaerobic condition at 8 ug/ml after 11 days by Wayne dormancy culture model.
Test [17] deals with Mycobacterium tuberculosis. Nature of the test: Bactericidal activity against 12-day old non-replicating Mycobacterium tuberculosis H37Rv in anaerobic condition at 8 ug/ml after 11 days by Wayne dormancy culture model.
Test [18] has as its system Mycobacterium tuberculosis. Nature of the test: Bactericidal activity against 19-day old non-replicating Mycobacterium tuberculosis H37Rv in anaerobic condition at 8 ug/ml after 1 day by Wayne dormancy culture model.
The test system of test [19] is Mycobacterium tuberculosis. Put plainly: Bactericidal activity against 19-day old non-replicating Mycobacterium tuberculosis H37Rv in anaerobic condition at 8 ug/ml after 4 days by Wayne dormancy culture model.
Test [20] concerns Mycobacterium tuberculosis. Nature of the test: Bactericidal activity against 19-day old non-replicating Mycobacterium tuberculosis H37Rv in anaerobic condition at 8 ug/ml after 11 days by Wayne dormancy culture model.
The subject of test [21] is Mycobacterium tuberculosis. Nature of the test: Bactericidal activity against 26-day old non-replicating Mycobacterium tuberculosis H37Rv in anaerobic condition at 8 ug/ml after 1 day by Wayne dormancy culture model.
In test [22] the test system is Mycobacterium tuberculosis. Nature of the test: Bactericidal activity against 26-day old non-replicating Mycobacterium tuberculosis H37Rv in anaerobic condition at 8 ug/ml after 4 days by Wayne dormancy culture model.

As to `CO[C@H]1/C=C/O[C@@]2(C)Oc3c(C)c(O)c4c(O)c(c(/C=N/N5CCN(C)CC5)c(O)c4c3C2=O)NC(=O)/C(C)=C\C=C\[C@H](C)[C@H](O)[C@@H](C)[C@@H](O)[C@@H](C)[C@H](OC(C)=O)[C@@H]1C`, the result in test [1], in [2], in [3], in test [4], in [5] and in test [6] was Active. Besides, the result in test [7], in [8], in test [9], in [10], in test [11] and in test [12] was Active.
In the case of `Cc1ncc([N+](=O)[O-])n1CCO`, the result in test [13], in test [14], in [16], in test [17], in test [18] and in [19] was Active. The result in [20], in [21] and in [22] was Active. Also, the outcome in test [15] was inactive.
